Read-outs that look alike come from different tables or passages of the source.
Experiments:
[1] = In Vitro Microsome Stability Assay (monkey); format: in vitro ADME
How it was run: (§1)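 Species liver microsomes in potassium phosphate buffer were preincubated at 37 °C for 3–5 min with test compound (added from 0.25 mM DMSO stock), then started with NADPH. Samples at 0 and 30 min were quenched with acetonitrile containing internal standard and analysed by LC-MS/MS; % remaining at 30 min used analyte/IS AUC ratios relative to t=0.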

[2] = tested on: PD1 signal sequence plus 10 amino acids fused to Gaussia Luciferase (PD1-ss+10aa/Gaussia Luciferase); assay: Dox Induced PD1-ss-Gluc Assay; format: cell-based; conditions: 24 hr, read-out: 24 hr Dox Inducible PD1ssGluc 293FRT/TO: Mean IC50
How it was run: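 Compound dilutions in DMSO/media containing doxycycline were applied to a stable, inducible 293 T-REx line carrying the luciferase fusion, then incubated at 37 °C, 5% CO2. Where stereochemistry is not drawn, values relate to isomer mixtures.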

[3] = tested on: full length IL-2 (amino acids 1-153) fused to Gaussia Luciferase; assay: Dox Induced IL2-FL-Gluc Assay; format: cell-based; conditions: 24 hr, read-out: 24 hr Dox Inducible IL2FLGluc 293FRT/TO: Mean IC50
Text: FIp-In 293 T-REx™ cells were transfected with pcDNA™5/FRT/TO plasmid inserted with cDNA encoding Gaussia Luciferase fused to the 3′ end of cDNA encoding full length IL-2 (amino acids 1-153). Transfected cells were selected for resistance to the selectable markers Hygromycin and Blasticidin to create a stable cell line that contained the IL-2-FL/Gaussia Luciferase cDNA insert whose expression was regulated under the T-REx™ system. The day before assay, cells were trypsinized and plated in 384-well tissue culture plates. The next day, compound dilutions in DMSO/media containing doxycycline were added to the wells and incubated at 37° C., 5% CO2.
For chemical structures that include one or more stereoisomers, but are illustrated without indicating stereochemistry, the assay data refers to a mixture of stereoisomers.

[4] = In Vitro Microsome Stability Assay (mouse); format: in vitro ADME
How it was run: as §1

[5] = In Vitro Microsome Stability Assay (rat); format: in vitro ADME
How it was run: as §1

[6] = tested on: multiple myeloma cell line NCl-H929; assay: H929 Cell Viability Assay; format: cell-based, human
How it was run: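 Viability was determined by CellTiter-Glo luminescence after a 48 h, 37 °C exposure of NCI-H929 cells to serial compound dilutions in medium containing 10% FBS. Where stereochemistry is not shown, values refer to a mix of stereoisomers.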

[7] = tested on: full length TNFα (amino acids 1-233) fused to Gaussia Luciferase; assay: Dox Induced TNFα-FL-Gluc Assay; format: cell-based; conditions: 24 hr, read-out: 24 hr Dox Inducible TNFaFLGluc 293FRT/TO: Mean IC50
How it was run: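 Compounds diluted in DMSO/medium with doxycycline were incubated at 37° C, 5% CO2 with 293 T-REx cells stably carrying a Tet-regulated TNFα(1-233)-Gaussia luciferase construct. Data for structures drawn without stereochemistry refer to stereoisomer mixtures.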

[8] = In Vitro Microsome Stability Assay (human); format: in vitro ADME
How it was run: as §1

[9] = tested on: multiple myeloma cell line U266B1; assay: U266 Cell Viability Assay; format: cell-based, human; conditions: 48 hr
How it was run: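 Viability was measured by CellTiter-Glo luminescence after 48 h compound exposure at 37° C, 5% CO2. The cells were U266B1 multiple myeloma cells grown in RPMI 1640 plus 10% FBS. Where stereochemistry is not shown, values apply to the stereoisomer mixture.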

[10] = monkey liver microsomes, 30 min w/ NADPH
[11] = mouse liver microsomes, 30 min w/ NADPH
[12] = rat liver microsomes, 30 min w/ NADPH
[13] = human liver microsomes, 30 min w/ NADPH
[14] = Homo sapiens, NCI-H929, 48 h, H929, read-out: 48 hr H929 Viability Celltiter-Glo: Mean EC50
[15] = Homo sapiens, U-266, U266, read-out: 48 hr U266 Viability Celltiter-Glo: Mean EC50
[16] = Homo sapiens, NCI-H929, 48 h, H929, Celltiter-Glo
[17] = Homo sapiens, U-266, U266, Celltiter-Glo

Compound | Liver Microsome Stability-% Left after 30 min w/ NADPH (%) Monkey [1, 10] | IC50 ([2]; Dox inducible, 293FRT/TO cells) | IC50 ([3]; Dox inducible, 293FRT/TO cells) | Liver Microsome Stability-% Left after 30 min w/ NADPH (%) Mouse [4, 11] | Liver Microsome Stability-% Left after 30 min w/ NADPH (%) Rat [5, 12] | EC50 ([6]; 48 hr, H929, Celltiter-Glo) | IC50 ([7]; Dox inducible, 293FRT/TO cells) | Liver Microsome Stability-% Left after 30 min w/ NADPH (%) Human [8, 13] | EC50 ([9]; U266, Celltiter-Glo) | Liver Microsome Stability-% Left after 30 min w/ NADPH (%) Monkey ([1]; monkey, 30 min, NADPH) | IC50 ([2]; 293FRT/TO) | IC50 ([3]; 293FRT/TO) | Liver Microsome Stability-% Left after 30 min w/ NADPH (%) Mouse ([4]; mouse, 30 min, NADPH) | Liver Microsome Stability-% Left after 30 min w/ NADPH (%) Rat ([5]; rat, 30 min, NADPH) | EC50 [6, 14] | IC50 ([7]; 293FRT/TO) | Liver Microsome Stability-% Left after 30 min w/ NADPH (%) Human ([8]; human, 30 min, NADPH) | EC50 [9, 15] | EC50 [6, 16] | EC50 [9, 17]
Cc1cc(F)ccc1N1CCN(S(=O)(=O)N2CCCN(CC3CCCCC3)CCCN(S(=O)(=O)c3ccc(N(C)C)cc3)C[C@H](C)C2)C(C)C1 (stereo in doubt) [A163, 4-{[(3S)-9-(cyclohexylmethyl)-5-{[(2 R)-4-(4-fluoro-2-methylphenyl)-2-methylpiperazin-1-yl]sulfonyl}-3-methyl-1,5,9-triazacyclododecan-1-yl]sulfonyl}-N,N-dimethylaniline] | 57.5% | 0.0556 µM | 0.0812 µM | 72.8% | 54.9% | 13.6 µM | 1.93 µM | 64.2% | > 25 µM | – | – | – | – | – | – | – | – | – | – | –
CO/N=C1/CN(S(=O)(=O)c2ccc(N(C)C)cc2)CCCN(CC2CCCCC2)CCCN(S(=O)(=O)N2CCC(c3ccccc3)CC2)C1 [A88, (3Z)-9-(cyclohexylmethyl)-1-[4-(dimethylamino)benzenesulfonyl]-N-methoxy-5-[(4-phenylpiperidin-1-yl)sulfonyl]-1,5,9-triazacyclododecan-3-imine] | – | – | – | – | – | – | – | – | – | 1.33% | 4.33 µM | > 25 µM | 15.9% | 15.2% | > 25 µM | > 25 µM | 11.7% | > 25 µM | – | –
C=C1CN(S(=O)(=O)c2ccc(N(C)C)cc2)CCCN(CC2CCCCC2)CCCN(S(=O)(=O)N2Cc3ccc(Cl)cc3C2)C1 [A89, 4-({5-[(5-chloro-2,3-dihydro-1H-isoindo1-2-yl)sulfonyl]-9-(cyclohexylmethyl)-3-methylidene-1,5,9-triazacyclododecan-1-yl}sulfonyl)-N,N-dimethylaniline] | – | – | – | – | – | – | – | – | – | 13.5% | 0.082 µM | 0.187 µM | 17.1% | 22.2% | 1.75 µM | 1.21 µM | 18.5% | > 25 µM | – | –
C[C@H]1CN(S(=O)(=O)c2ccc(N(C)C)cc2)CCCN(CC2CCCCC2)CCCN(S(=O)(=O)N2CCNCC2)C1 [A155, 4-{[(3S)-9-(cyclohexylmethyl)-3-methyl-5-(piperazine-1-sulfonyl)-1,5,9-triazacyclododecan-1-yl]sulfonyl}-N, N-dimethylaniline] | 4.86% | 1.35 µM | 3.48 µM | 16.8% | 38.8% | – | – | 17.8% | – | – | – | – | – | – | – | – | – | – | 7.8 µM | > 25 µM
C[C@@H](CNS(=O)(=O)c1ccc(N(C)C)cc1)CNS(=O)(=O)N1CCc2cc(Cl)ccc2C1 [B10, (S)-6-chloro-N-(3-((4-(dimethylamino)phenyl)sulfonamido)-2-methylpropyl)-3,4-dihydroisoquinoline-2(1H)-sulfonamide] | – | 16.5 µM | 6.92 µM | – | – | – | > 25 µM | – | – | – | – | – | – | – | – | – | – | – | > 25 µM | > 25 µM
C[C@H](CNS(=O)(=O)c1ccc(N(C)C)cc1)CNS(=O)(=O)N1CCc2cc(Cl)ccc2C1 [B11, N-[(2 R)-3-{[(6-chloro-1,2,3,4-tetrahydroisoquinolin-2-yl)sulfonyl]amino}-2-methylpropyl]-4-(dimethylamino)benzene-1-sulfonamide] | – | > 25 µM | > 25 µM | – | – | – | > 25 µM | – | – | – | – | – | – | – | – | – | – | – | > 25 µM | > 25 µM
C[C@@H](CN(C)S(=O)(=O)c1ccc(N(C)C)cc1)CN(C)S(=O)(=O)N1CCc2cc(Cl)ccc2C1 [B12] | – | 5.66 µM | > 25 µM | – | – | – | > 25 µM | – | – | – | – | – | – | – | – | – | – | – | > 25 µM | > 25 µM
